The target of data set [1] is Luciferin 4-monooxygenase (Photinus pyralis, UniProt P08659). The experiment in a line: firefly luciferase enzyme inhibitors, dose response, biochemical, luminescence (AID 1891).
Data set [2] is described as follows: Luminescence Cell-Based Dose Confirmation HTS to Identify Inhibitors of Platelet Dense Granule Release. [Related pubchem assays: 1663 (Primary HTS), 1678 (Summary of Project)]. It counts as functional.
For data set [3], the target named is Cytochrome P450 3A4 (Homo sapiens, UniProt P08684).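 Further: CYP3A4 tested as one member of a cytochrome P450 panel screen.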
Chain of Cytochrome P450 3A4 (P08684 whole entry): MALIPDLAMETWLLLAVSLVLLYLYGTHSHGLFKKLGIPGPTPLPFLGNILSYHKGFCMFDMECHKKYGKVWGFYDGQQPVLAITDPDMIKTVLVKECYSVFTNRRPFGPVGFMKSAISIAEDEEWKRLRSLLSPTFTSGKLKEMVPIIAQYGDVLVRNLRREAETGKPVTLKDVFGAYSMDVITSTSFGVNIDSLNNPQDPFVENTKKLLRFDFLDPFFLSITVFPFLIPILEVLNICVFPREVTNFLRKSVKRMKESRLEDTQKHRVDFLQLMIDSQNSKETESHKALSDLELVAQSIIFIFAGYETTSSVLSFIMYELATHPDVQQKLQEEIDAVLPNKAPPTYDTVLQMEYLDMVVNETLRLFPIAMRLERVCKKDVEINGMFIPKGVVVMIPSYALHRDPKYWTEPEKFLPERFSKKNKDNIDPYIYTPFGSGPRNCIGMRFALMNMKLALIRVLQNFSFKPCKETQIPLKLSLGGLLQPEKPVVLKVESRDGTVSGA
Data set [4] concerns Streptococcus. The experiment in a line: Group A Streptococcus viability loss, dose response, counter-screen for streptokinase expression inhibitor project, luminescence, BacTiterGlo (AID 1915).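 Further: potency for reduction of bacterial viability or growth.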 It counts as functional, organism-based. In general terms: A counterscreen serves to expose hits that act by an unwanted route or on another target.
Data set [5] concerns Streptococcus sp. 'group A'. The experiment in a line: growth inhibition of control SK(-) GAS strain, dose response, counter-screen for streptokinase expression inhibitor project, luminescence, kanamycin, BacTiterGlo, confirmation (AID 1900). It counts as functional, organism-based.
Data set [6] concerns the target T1, Streptokinase A (Streptococcus pyogenes serotype M1, UniProt P10520).
T1 sequence (P10520 whole entry): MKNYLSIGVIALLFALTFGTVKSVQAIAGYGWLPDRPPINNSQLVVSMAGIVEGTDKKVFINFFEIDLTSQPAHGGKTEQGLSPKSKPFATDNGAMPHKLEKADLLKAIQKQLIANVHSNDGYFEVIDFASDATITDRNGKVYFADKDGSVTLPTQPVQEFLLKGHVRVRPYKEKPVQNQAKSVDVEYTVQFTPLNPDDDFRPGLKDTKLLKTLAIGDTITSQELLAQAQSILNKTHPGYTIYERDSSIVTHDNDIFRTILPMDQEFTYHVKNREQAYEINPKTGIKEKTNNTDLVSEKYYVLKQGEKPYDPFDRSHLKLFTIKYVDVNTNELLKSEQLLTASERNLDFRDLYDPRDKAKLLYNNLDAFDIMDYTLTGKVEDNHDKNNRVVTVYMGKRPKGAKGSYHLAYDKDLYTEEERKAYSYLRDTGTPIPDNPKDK
The experiment in a line: S. pyogenes streptokinase expression inhibitors, potency, dose response, plasminogen activation absorbance, OD405 (AID 1914).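 Further: secreted streptokinase activity via plasminogen activation per viability signal from cell pellet.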 It counts as functional, Streptococcus pyogenes M1 GAS.

Data set [7] deals with Cytochrome P450 2C9 (Homo sapiens, UniProt P11712).
Chain of Cytochrome P450 2C9 (P11712 whole entry): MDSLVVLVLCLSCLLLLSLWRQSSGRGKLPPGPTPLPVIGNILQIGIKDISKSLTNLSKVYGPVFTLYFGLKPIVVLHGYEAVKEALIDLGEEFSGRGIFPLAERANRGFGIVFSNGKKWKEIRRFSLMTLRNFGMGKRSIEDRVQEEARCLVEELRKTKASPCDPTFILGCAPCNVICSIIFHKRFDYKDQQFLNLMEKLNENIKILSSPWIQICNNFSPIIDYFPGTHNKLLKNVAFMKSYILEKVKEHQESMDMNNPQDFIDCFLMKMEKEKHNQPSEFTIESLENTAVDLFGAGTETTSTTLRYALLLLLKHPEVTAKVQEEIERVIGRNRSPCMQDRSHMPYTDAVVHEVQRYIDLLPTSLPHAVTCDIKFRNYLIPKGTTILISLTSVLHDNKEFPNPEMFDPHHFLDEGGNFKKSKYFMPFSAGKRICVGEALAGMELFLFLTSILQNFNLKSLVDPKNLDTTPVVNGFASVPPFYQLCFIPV
Data set [8] concerns the target Cytochrome P450 2C19 (Homo sapiens, UniProt P33261). Description: Cytochrome panel assay with activity outcomes. Panel member name: p450-cyp2c19 Compounds with AC50 equal or less than 10 uM are considered active. The format is functional.
Data set [9] concerns the target Cytochrome P450 2D6 (Homo sapiens, UniProt P10635).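 Further: CYP2D6 member of a cytochrome P450 panel assay.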
The nature of data set [10]: inhibitors of intracellular T. cruzi replication, confirmation, NIH3T3 host cells, beta-gal luminescence (AID 2044).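 Further: intracellular parasites grown in NIH/3T3 mouse fibroblasts as host cells; luminescent beta-galactosidase reporter signal from transgenic T. cruzi replicating inside host cells; inhibitors lower the luminescence signal.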 The format is functional, cell-based.
Data set [11] can be described thus: cytotoxicity toward NIH3T3 fibroblasts, dose response, counter-screen, cell-based, ATP luminescence, mouse fibroblasts (AID 2010).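 Further: cells exposed to compound for about 90 hours before reading.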 It counts as functional.

What is called EC50 is the concentration needed to bring the measured effect to its halfway point. One may read the AC50 as the concentration at which the activity in the assay is half-maximal.

Values joined by “and” are separate entries in the source; they are usually repeats but may differ in a detail not shown here. Equal values may be shown once. Active and inactive are the calls of the source.

Chain of Cytochrome P450 2C19 (P33261 whole entry): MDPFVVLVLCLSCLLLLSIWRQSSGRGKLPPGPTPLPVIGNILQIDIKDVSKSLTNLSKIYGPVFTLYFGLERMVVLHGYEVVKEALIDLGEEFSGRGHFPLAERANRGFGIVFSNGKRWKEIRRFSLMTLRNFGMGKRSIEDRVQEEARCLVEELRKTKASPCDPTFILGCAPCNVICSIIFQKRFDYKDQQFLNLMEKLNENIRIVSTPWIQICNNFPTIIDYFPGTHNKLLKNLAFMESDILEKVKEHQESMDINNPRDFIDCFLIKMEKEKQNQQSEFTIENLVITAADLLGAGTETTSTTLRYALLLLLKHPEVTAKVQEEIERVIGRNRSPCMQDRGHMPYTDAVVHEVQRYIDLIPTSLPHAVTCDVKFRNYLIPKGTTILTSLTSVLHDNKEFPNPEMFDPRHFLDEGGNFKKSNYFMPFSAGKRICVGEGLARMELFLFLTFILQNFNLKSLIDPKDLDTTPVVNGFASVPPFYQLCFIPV
Chain of Cytochrome P450 2D6 (P10635 whole entry): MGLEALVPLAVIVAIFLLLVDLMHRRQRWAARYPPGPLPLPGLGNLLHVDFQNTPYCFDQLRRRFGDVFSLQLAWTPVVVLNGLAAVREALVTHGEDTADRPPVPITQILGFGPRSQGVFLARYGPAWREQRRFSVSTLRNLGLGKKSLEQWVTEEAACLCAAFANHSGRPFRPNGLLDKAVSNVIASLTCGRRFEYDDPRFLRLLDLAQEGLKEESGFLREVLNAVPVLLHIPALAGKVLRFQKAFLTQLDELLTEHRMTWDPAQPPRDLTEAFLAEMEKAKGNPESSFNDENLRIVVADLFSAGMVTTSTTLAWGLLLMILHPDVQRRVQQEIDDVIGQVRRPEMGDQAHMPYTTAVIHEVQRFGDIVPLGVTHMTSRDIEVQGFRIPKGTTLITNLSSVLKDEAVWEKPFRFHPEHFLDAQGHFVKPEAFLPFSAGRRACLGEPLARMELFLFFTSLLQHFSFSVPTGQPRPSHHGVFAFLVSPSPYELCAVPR
Chain of Luciferin 4-monooxygenase (P08659 whole entry): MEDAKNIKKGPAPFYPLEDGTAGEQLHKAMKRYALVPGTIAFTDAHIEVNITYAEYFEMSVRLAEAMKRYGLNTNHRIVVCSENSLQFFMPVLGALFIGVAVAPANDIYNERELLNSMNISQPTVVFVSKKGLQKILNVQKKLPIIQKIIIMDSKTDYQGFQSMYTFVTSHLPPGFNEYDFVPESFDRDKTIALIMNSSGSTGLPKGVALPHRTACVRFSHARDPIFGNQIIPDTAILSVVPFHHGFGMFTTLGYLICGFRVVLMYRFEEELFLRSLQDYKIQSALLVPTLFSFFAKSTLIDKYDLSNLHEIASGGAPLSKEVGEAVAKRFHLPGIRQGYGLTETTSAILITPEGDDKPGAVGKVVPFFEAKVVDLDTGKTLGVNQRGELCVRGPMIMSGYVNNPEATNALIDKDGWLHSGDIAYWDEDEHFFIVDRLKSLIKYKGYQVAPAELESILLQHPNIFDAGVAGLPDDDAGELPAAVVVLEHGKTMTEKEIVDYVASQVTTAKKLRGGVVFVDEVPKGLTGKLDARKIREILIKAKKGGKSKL

Consider `CCOC(=O)c1cnc2c(C#N)c(C)nn2c1-c1ccccc1`, for which the results for the EC50 in data set [1] and in [2] were > 112 µM (not active) and 54.1 µM (active), respectively.

Regarding `Cc1ccc(/C=C/C(=O)Nc2ccccc2C(N)=O)cc1`, the values for the EC50 in data set [1] and in data set [2] were 3.26 µM (active) and 22.3 µM (active), respectively.

For `CCCC[P+](CCCC)(CCCC)Cc1ccc(NC(=O)[C@@H](Cc2ccc3ccccc3c2)N=C(NC2CCCCC2)NC2CCCCC2)cc1`, the AC50 in data set [3] was 25.1 µM (inconclusive).

Consider `CCCCNC(=O)c1onc(CSc2ccc(C(C)C)cc2)c1C(=O)O`, for which the EC50 in [4] is > 150 µM (not active); in [5], 3.81 µM (active); in [6] it was 2.28 µM (active).

`Cc1ccc(-c2nc(SC(C)C(=O)N3CCOCC3)n[nH]2)cc1` (stereo not drawn): the EC50 in data set [1] and in [2] was > 112 µM (not active) throughout.

On to `COc1ccc2[nH]cc(CCNc3ccnc(-c4ccoc4)n3)c2c1`, for which the AC50 in data set [7] was 0.794 µM (inconclusive).

Regarding `O=c1[nH]c(=S)[nH]nc1Cc1ccccc1`, the AC50 result in data set [8] was “inconclusive”; in data set [7], 39.8 µM (inconclusive).

With `O=C(CSc1nnc(NC(=O)c2cccc(F)c2)s1)NCC1CCCO1` (stereo not drawn), the concentration giving a half-maximal response (EC50) in [4], in data set [5] and in [6] was > 150 µM (not active) each time.

Regarding `CN=C(S)NNC(=O)c1sccc1OCc1ccc(C)cc1`, the AC50 in data set [3] was 15.8 µM (inconclusive).

As to `CCOc1ccc(C(=O)O/N=C(\N)c2ccccn2)cc1OCC`, the EC50 in data set [1] and in data set [2] was > 112 µM (not active) each time.

With `CCOP(=O)(Cc1ccc(C(=O)CC)o1)OCC`, the 50% effective concentration (EC50) in [4], in [5] and in data set [6] was > 150 µM (not active) each time.

For `CC(=O)Nc1ccc(N2C(=O)CSC2c2c(F)cccc2Cl)cc1` (stereo not drawn), the AC50 in data set [8] (read-out: AC50) was 39.8 µM (inconclusive); in [3], 22.4 µM (inconclusive).

Consider `Cc1nn(C)cc1CNC(=O)C1CCC(=O)N(CC2CCCCC2)C1` (stereo not drawn), for which the EC50 in data set [1] and in data set [2] was > 112 µM (not active) in each case.

`CCCCNC(=O)C(=O)NC(C)CCc1ccccc1` (stereo not drawn): the AC50 in data set [7] is 17.8 µM (inconclusive).

Turning to `COc1cccc([C@@H]2Oc3ccc(Br)cc3C(=O)[C@H]2O)c1`, the AC50 in data set [3] was 6.31 µM (inconclusive).

`CCOC(=O)c1c(-c2ccc(C)o2)csc1NC(=O)COC(=O)c1ccc(NC(N)=O)cc1`: the EC50 in [4] was 68 µM (active); in data set [5] it was 1.75 µM (active); in data set [6] it was 49.5 µM (active).

For the compound `COc1cc(C[C@H](C)N)c(OC)cc1I`, in [3], the half-maximal activity concentration (AC50) is 1.58 µM (inconclusive) and 31.6 µM (inconclusive).

As for `CCc1cc2c(COC(=O)c3cccc(NS(C)(=O)=O)c3)cc(=O)oc2cc1O`, the EC50 in [4] was 100 µM (active); in data set [5] it was 6.8 µM (active); in data set [6], > 150 µM (not active).

`CCCn1nc2cc(C(=O)NCCc3ccc(C)cc3)ccc2c1OCC`: in data set [7], the AC50 was 39.8 µM (inconclusive).

As for `O=C1NC(=O)/C(=C\c2ccc(OCc3ccccc3)cc2)S1`, the concentration for a half-maximal effect (EC50) in data set [4] is > 150 µM (not active); in [5], 52.8 µM (active); in data set [6], > 50 µM (not active).

For `Cc1ccc(S(=O)(=O)N2CCCCC2)cc1NC(=O)CN1C(=O)CN(C)C1=O`, the concentration for a half-maximal effect (EC50) in data set [4], in data set [5] and in [6] was > 150 µM (not active) in each case.

`Cc1cc(N)ccc1NC(=O)c1ccccc1`: the AC50 was 20 µM (inconclusive) in [8] (read-out: AC50) and 0.0224 µM (inconclusive) in data set [7].

In the case of `COc1ccc(-c2nc3cnc(OC)nc3n(Cc3cccs3)c2=O)cc1`, the AC50 was 7.94 µM (inconclusive) in data set [9] and 5.01 µM (inconclusive) in [7].

As to `Nc1ccn(-c2ccc(Cl)cc2)c(=O)c1`, the EC50 in data set [1] and in [2] was > 112 µM (not active) throughout.

Consider `COC(=O)c1c(NC(=O)C2CC(=O)NN2Cc2ccccc2)sc(C)c1C` (stereo not drawn), for which the concentration giving a half-maximal response (EC50) in [1] and in data set [2] was > 112 µM (not active) throughout.

As for `CCN(CC)S(=O)(=O)c1ccc2c(c1)nc(CCC(=O)O)n2C`, the EC50 in data set [1] and in data set [2] was > 112 µM (not active) in each case.

Turning to `CCn1cc(CN2CCC(n3nccc3NC(=O)Cc3ccccc3)CC2)cn1`, the 50% effective concentration (EC50) in data set [4], in data set [5] and in data set [6] was > 150 µM (not active) each time.

As to `Cc1cc(C)c(S(=O)(=O)N2CCCCC2)c(C)c1N(C)S(=O)(=O)c1ccccc1`, the AC50 in [3] is 1.12 µM (inconclusive).

Consider `Cc1c(NC(=O)/C=C/C(=O)O)cccc1[N+](=O)[O-]`, for which the half-maximal activity concentration (AC50) in [8] (read-out: AC50) was 15.8 µM (inconclusive); in [7], 28.2 µM (inconclusive).

As to `Cc1noc(C)c1C(=O)Nc1ccc2ccccc2c1`, the EC50 in data set [4], in data set [5] and in data set [6] was > 150 µM (not active) in each case.

On to `c1ccc(-n2c3ccccc3c3ccccc32)cc1`, for which the concentration giving a half-maximal response (EC50) was > 150 µM (not active) in data set [4], 6.43 µM (active) in data set [5] and > 150 µM (not active) in [6].

Turning to `O=C(NCC(=O)N(c1ccccc1)C(C(=O)NC1CCCC1)c1cccnc1)c1cccs1` (stereo not drawn), the AC50 in [8] (read-out: AC50) was 15.8 µM (inconclusive); in data set [7] it was 17.8 µM (inconclusive).

For the compound `CCN(CC)CCn1c(=S)[nH]c2cc3c(cc2c1=O)OCO3`, the concentration at half-maximal activity (AC50) in data set [8] (read-out: AC50) is 39.8 µM (inconclusive); in [3], 14.1 µM (inconclusive).

Regarding `O=C(NNC1=Nc2cccc3cccc1c23)c1ccc(Br)cc1`, the EC50 is 10.6 µM (active) in [4]; 1.12 µM (active) in data set [10]; 0.324 µM (active) in [5]; 6.29 µM (active) in [11]; > 150 µM (not active) in data set [6].

For `COc1ccc(CN2CCNC(=O)C2CC(=O)NCC(C)(C)N2CCOCC2)cc1C` (stereo not drawn), the EC50 in data set [1] and in data set [2] was > 112 µM (not active) throughout.

In the case of `CN(Cc1ccco1)c1nc(-c2cccc(C#N)c2)nc2ccccc12`, the half-maximal activity concentration (AC50) in [7] was 1 µM (inconclusive).

Regarding `Cc1cccc(C)c1NC(=O)C(c1ccccc1)N1CCC1=O` (stereo not drawn), the AC50 in data set [8] (read-out: AC50) was 20 µM (inconclusive); in data set [3], 25.1 µM (inconclusive).

Take `Cc1ccc(OCC(O)CNC(=O)c2ccccc2C(=O)O)cc1` (stereo not drawn): the AC50 in data set [7] is 0.00562 µM (inconclusive).

For `Cc1ccc(CNC(=O)C2CCC(=O)N2C2CCCCC2)cc1` (stereo not drawn), in data set [7], the AC50 is 7.08 µM (inconclusive).

As to `CCCN1CCc2cc(O)cc3c2[C@H]1Cc1ccc(O)c(O)c1-3`, the figures for the concentration at half-maximal activity (AC50) in data set [9] and in data set [7] were 15.8 µM (inconclusive) and 39.8 µM (inconclusive), respectively.

For the compound `Oc1oc(-c2ccccc2)nc1/C=N/c1ccccc1`, the AC50 in [3] was 25.1 µM (inconclusive).

With `COc1cccc(/C=N/NC(=O)C(=O)N/N=C/c2cccc(OC)c2OC)c1OC`, the EC50 in data set [1] and in [2] was > 112 µM (not active) each time.

Consider `Cc1cccc(CNc2ncnc3ccc(-c4ccc(C(=O)N(C)C)cc4)cc23)c1`, for which the half-maximal activity concentration (AC50) is 39.8 µM (inconclusive) in data set [8] (read-out: AC50), 25.1 µM (inconclusive) in [9] and 0.794 µM (inconclusive) in data set [7].

Values taken from ChEMBL document CHEMBL1201862, “PubChem BioAssay data set” (2004).
